Columns and labels:
E. coli [1] = test: De-colorization of Reichardt's dye-coated paper by bacteria solutions; set-up: species or system Escherichia coli; conditions: paper brush-coated with 80 mg/10 mL acetonitrile; 100 μL of 10^7 to 10^4 CFU/mL
Method: This experiment tested the ability of a surface coating of Reichardt's dye to respond to bacterial contamination. […] To this paper was added 100 μL aliquots of 10^7, 10^6, 10^5, and 10^4 CFU/mL E. coli or S. aureus solutions (8B). Water was used as a negative control. […] It was later determined that while both bacteria solutions were indeed at 10^7 CFU/mL concentrations, the actual concentration of the S. aureus solution was 7×10^7 CFU/mL compared to 1×10^7 CFU/mL for the E. coli solution.

S. aureus [2] = test: Titration of substrate-bound microorganism with Reichardt's dye solution; set-up: species or system Staphylococcus aureus
Method: On a SCOTT® paper towel was placed 100 μl each of serially diluted S. aureus bacterial suspensions. […] This was repeated on each spot corresponding to where different concentrations of bacteria were placed.

E. coli [3] = test: as above; set-up: species or system Escherichia coli; conditions: 160 mg in 10 ml acetonitrile, 10 μl aliquots; 100 μl of 10^7 CFU/ml on towel
[4] = Reichardt's dye indicator with bacterial cell-wall components; conditions: 160 mg in 10 mL acetonitrile
[5] = tested on: vaginal fluid samples (lactobacillus, BV bacteria); test: Reichardt's dye-coated stickers with normal and BV-infected vaginal fluid
Method: Considering the high prevalence of vaginal infections of bacterial origin, an experiment was performed to determine the response of Reichardt's dye-coated stickers to healthy (low pH, no bacterial infection), a pH positive/Bacterial Vaginosis (BV) negative (no bacterial infection, but higher than normal pH), and pH positive/BV positive (higher than normal pH and known bacterial infection) vaginal fluid samples. […] A sticker of each concentration was tested with normal, BV positive/pH positive, and BV negative/pH positive vaginal fluid samples.

[6] = tested on: microbes on computer keyboard; test: Indicator spray on computer keyboard
Method: Reichardt's dye was dissolved in isopropanol (160 mg in 10 mL of isopropanol) and attached to an aerosol-based spray device. The keyboard was then sprayed with the indicator solution (10B).

S. aureus [7] = test: Solvent choice for Reichardt's dye coatings on SCOTT towels; set-up: species or system Staphylococcus aureus; conditions: coated SCOTT towel, 100 μl aliquots of S. aureus
Method: Solutions of Reichardt's dye in acetonitrile, isopropanol, and xylenes were prepared and the solutions were used to coat SCOTT® kitchen rolls towels and allowed to air-dry (FIGS. 12A and 12D).

bacteria solution = test: Lateral flow device; conditions: 5 weight percent dye in iso-propanol striped on nitrocellulose HF75
Method: Millipore nitrocellulose HF75 membrane (from Millipore Corporation of Billerica, Mass., USA) was laminated onto a plastic supporting card (from Millipore Corp.) having a length of approximately 30 centimeters. On both the detection zone and control zone, a solution of 5 weight percent Reichardt's dye in iso-propanol was hand striped. The membrane was dried in a laboratory oven for 1 hour at a temperature of 37.5° C. After the membrane card was taken from the oven, a cellulosic wicking pad (Cat# CFSP203000 from Millipore Corp.) was attached to one end of the membrane closer to the control zone. The other end of the card, used to attach the sample pad, was cut off. The card was then sliced into 4 mm strips to form half sticks.
Once the half sticks were prepared, a bacteria solution was applied to the end of the detection membrane. […] The control line color remained the same through out the test.

Bleach indicator test = type: physicochemical; conditions: mixture with TMB coated on SCOTT towel
E. coli [8] = test: Towel coated with Reichardt's dye and TMB exposed to bacteria; set-up: species or system Escherichia coli; conditions: E. coli suspension drop-wise
[9] = UV-Vis absorption spectra in different solvents; type: physicochemical
From the text: Reichardt's dye was used without further purification. […] Solvents used were obtained from Aldrich Chemical and were HPLC grade. A Shimadzu UV-1601 UV-Visible Spectrophotometer (Shimadzu Corporation) was used to measure the longest wavelength peak absorption of the dyes in the range of 400 to 800 nm, dissolved in three different solvents, contained in quartz curvettes. The following table contains the results of the testing with the solvents on the left side and dyes across the top.

Polio virus type 1 = conditions: virus diluted serially in media, 50-microliter aliquots, 3 minutes
Rhinovirus = test: Virus detection with Reichardt's dye
measles = test: Virus detection with Reichardt's dye-coated stickers
S. aureus [10] = test: Semi-quantification of bacterial contamination on dye-treated paper; set-up: species or system Staphylococcus aureus
Method: The color differences at lower concentrations were less distinct, particularly for the brush-coated sheet. A blind study was then conducted. […] Concentrations of these three drops were unknown to two of the experiment participants. After approximately 2 minutes, the drops were removed and blotted. Using the control regions, the concentrations of each sample were each visually estimated by these two persons. Both persons correctly estimated the concentration of the first sample to be 10^6 CFU/mL. […] The persons, however, incorrectly estimated the third sample to be 10^3 CFU/mL. […] The present inventors believe, however, that the concentration of the chromogen and uniformity of the coating may be readily selected to achieve accurate results at such low concentrations.

[O-]c1c(-c2ccccc2)cc(-[n+]2c(-c3ccccc3)cc(-c3ccccc3)cc2-c2ccccc2)cc1-c1ccccc1 [Reichardt's dye, 2,6-diphenyl-4-(2,4,6-triphenylpyridinio)-phenolate]
de-colorization time (E. coli [1]): < 1 min
Amount of Dye Required for Persistent Color (S. aureus [2]; 160 mg in 10 ml acetonitrile, 10 μl aliquots, 100 μl of 10^7 CFU/ml on towel): 90 µL
de-colorization time of dye drops (S. aureus [2]; 10 μl drops of 40 mg/10 ml acetonitrile on 100 μl serially diluted suspensions on SCOTT towel): < 1 s
Amount of Dye Required for Persistent Color (E. coli [3]): 80 µL
de-colorization by the other cell-wall compounds (LPS, detoxified LPS, lipoteichoic acid) [4]: eventual de-colorization
de-colorization by muramic acid ([4]; both experimental set-ups): near instantaneous de-colorization
de-colorization by BV negative/pH positive vaginal fluid [5]: only faintly de-colorized
de-colorization by BV positive/pH positive vaginal fluid [5]: next sharpest de-colorization
de-colorization by normal vaginal fluid [5]: sharpest de-colorization
de-colorization of spray on old computer keyboard [6]: rapid de-colorization of the dye in certain areas
color change of coating made from acetonitrile solution (S. aureus [7]): rapid de-colorization
color change of coatings made from isopropanol and xylenes solutions (S. aureus [7]): No visible color change
color change in detection zone of lateral flow half stick (bacteria solution): a color change was noted in the detection zone
response of Reichardt's dye to dilute bleach (Bleach indicator test): de-colorizing
time to decolorize to a white spot (E. coli [8]): less than 10 seconds
perceived color of solution ([9]; Acetone): (bluish-green)
perceived color of solution ([9]; Acetonitrile): (Blue)
perceived color of solution ([9]; Methanol): (red)
lowest ten-fold dilution at which stickers changed color (Polio virus type 1): 10^−6
dye added until the color persisted (Rhinovirus; 80 milligrams/10 milliliters acetonitrile with or without TWEEN 80, 100-microliter drop of undiluted virus on SCOTT towel): approximately 9 drops
lowest ten-fold dilution at which stickers changed color (Rhinovirus; virus diluted serially in saline, 50-microliter aliquots, 3 minutes): 10^−6
de-colorization of sticker by undiluted virus (measles): less than that observed for the other viruses
visually estimated concentration, blind study third sample (S. aureus [10]; actual 10^4 CFU/mL, dip-coated sheet): 10^3 CFU/mL
visually estimated concentration, blind study second sample (S. aureus [10]; actual 10^5 CFU/mL, brush-coated sheet): 10^5 CFU/mL
visually estimated concentration, blind study first sample (S. aureus [10]; actual 10^6 CFU/mL, dip-coated sheet): 10^6 CFU/mL
